In patent publication US20250026778A1 (TIUMBIO CO., LTD., priority 2021, published 2025) one finds inhibition data, which are given here for 16 compounds.

In the first assay the target is T1, his-galectin-3 (Homo sapiens, UniProt P17931).
T1 construct: purchased Abcam
T1 sequence (P17931 whole entry): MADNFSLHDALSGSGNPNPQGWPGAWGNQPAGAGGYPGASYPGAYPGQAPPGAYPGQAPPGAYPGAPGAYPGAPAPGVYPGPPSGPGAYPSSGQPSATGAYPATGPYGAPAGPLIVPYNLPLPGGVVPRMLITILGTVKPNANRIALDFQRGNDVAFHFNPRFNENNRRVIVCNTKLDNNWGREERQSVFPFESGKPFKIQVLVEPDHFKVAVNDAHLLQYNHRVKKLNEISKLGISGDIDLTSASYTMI
The assay is described as follows: TR-FRET assay (in vitro galectin-3 binding inhibitory activity test). As to conditions: Table 1; compound at 20 μM; 60 nM his-galectin-3, 15 nM biotin-ASF; read-out: % Inhibitory activity (at 20 μM). The method in brief:
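Compound is premixed with his-galectin-3 (60 nM final), then biotin-ASF (15 nM), Tb anti-His antibody (2 nM) and streptavidin-d2 (20 nM) are added. After at least 3.5 hours at RT in HEPES/NaCl buffer with Tween 20 and BSA, TR-FRET is read at 615/665 nm. DMSO serves as the uninhibited control, ASF omission as background.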
As to `OC[C@H]1O[C@]2(CCCO2)[C@H](O)[C@@H](n2cc(-c3cc(F)c(F)c(F)c3)nn2)[C@H]1O` [Compound A100, (5R,7R,8R,9S,10R)-7-(hydroxymethyl)-9-(4-(3,4,5-trifluorophenyl)-1H-1,2,3-triazol-1-yl)-1,6-dioxaspiro[4.5]decane-8,10-diol], the inhibition at 20 µM fell in the range of 25 to 50%.

`O=C(N[C@@H]1CCO[C@]12O[C@H](CO)[C@H](O)[C@H](n1cc(-c3cc(F)c(F)c(F)c3)nn1)[C@H]2O)c1cccc(F)c1` [Compound A60, N-((4R,5S,7R,8R,9S,10R)-8,10-dihydroxy-7-(hydroxymethyl)-9-(4-(3,4,5-trifluorophenyl)-1H-1,2,3-triazol-1-yl)-1,6-dioxaspiro[4.5]decan-4-yl)-3-fluorobenzamide]: the inhibition at 20 µM is less than 25%.

On to `OC[C@H]1O[C@]2(OCC[C@H]2NCc2ccccn2)[C@H](O)[C@@H](n2cc(-c3cc(F)c(F)c(F)c3)nn2)[C@H]1O` [Compound A98, (4R,5S,7R,8R,9S,10R)-7-(hydroxymethyl)-4-((pyridin-2-ylmethyl)amino)-9-(4-(3,4,5-trifluorophenyl)-1H-1,2,3-triazol-1-yl)-1,6-dioxaspiro[4.5]decane-8,10-diol], for which the inhibition at 20 µM was less than 25%.

The same assay, now with this note: Table 2; compound at 20 μM; 60 nM his-galectin-3, 15 nM biotin-ASF; read-out: % Inhibitory activity (at 20 μM).
For `O=C(N[C@@H]1CCO[C@]12O[C@H](CO)[C@H](O)[C@H](n1cc(-c3cc(F)c(F)c(F)c3)nn1)[C@H]2O)c1cccc2ncc(Cl)cc12` [Compound A217, 3-chloro-N-((4R,5S,7R,8R,9S,10R)-8,10-dihydroxy-7-(hydroxymethyl)-9-(4-(3,4,5-trifluorophenyl)-1H-1,2,3-triazol-1-yl)-1,6-dioxaspiro[4.5]decan-4-yl)quinoline-5-carboxamide], the inhibition at 20 µM was more than 75%.

For the compound `CC1CO[C@@]2(C1)O[C@H](CO)[C@H](O)[C@H](n1cc(-c3cc(F)c(F)c(F)c3)nn1)[C@H]2O` (stereo partly drawn) [Compound A214, (5S,7R,8R,9S,10R)-7-(hydroxymethyl)-3-methyl-9-(4-(3,4,5-trifluorophenyl)-1H-1,2,3-triazol-1-yl)-1,6-dioxaspiro[4.5]decane-8,10-diol], the inhibition at 20 µM lay in the range of 50 to 75%.

As for `O=C(N[C@@H]1CCO[C@]12O[C@H](CO)[C@H](O)[C@H](n1cc(-c3cc(F)c(F)c(F)c3)nn1)[C@H]2O)c1csc2ccc(Cl)cc12` [Compound A177, 5-chloro-N-((4R,5S,7R,8R,9S,10R)-8,10-dihydroxy-7-(hydroxymethyl)-9-(4-(3,4,5-trifluorophenyl)-1H-1,2,3-triazol-1-yl)-1,6-dioxaspiro[4.5]decan-4-yl)benzo[b]thiophene-3-carboxamide], the inhibition at 20 µM was more than 75%.

With `O=C(N[C@@H]1CCO[C@]12O[C@H](CO)[C@H](O)[C@H](n1cc(-c3cc(F)c(F)c(F)c3)nn1)[C@H]2O)c1ccc2cc(Cl)ccc2c1` [Compound A173, 6-chloro-N-((4R,5S,7R,8R,9S,10R)-8,10-dihydroxy-7-(hydroxymethyl)-9-(4-(3,4,5-trifluorophenyl)-1H-1,2,3-triazol-1-yl)-1,6-dioxaspiro[4.5]decan-4-yl)-2-naphthamide], the inhibition at 20 µM fell in the range of 25 to 50%.

For the compound `COc1cc(C(=O)N[C@@H]2CCO[C@]23O[C@H](CO)[C@H](O)[C@H](n2cc(-c4cc(F)c(F)c(F)c4)nn2)[C@H]3O)c2ccccc2c1` [Compound A241, N-((4R,5S,7R,8R,9S,10R)-8,10-dihydroxy-7-(hydroxymethyl)-9-(4-(3,4,5-trifluorophenyl)-1H-1,2,3-triazol-1-yl)-1,6-dioxaspiro[4.5]decan-4-yl)-3-methoxy-1-naphthamide], the inhibition at 20 µM was more than 75%.

As to `O=C(N[C@@H]1CCO[C@]12O[C@H](CO)[C@H](O)[C@H](n1cc(-c3cc(F)c(F)c(F)c3)nn1)[C@H]2O)c1cccc(-c2cccc(Cl)c2)c1` [Compound A166, 3′-chloro-N-((4R,5S,7R,8R,9S,10R)-8,10-dihydroxy-7-(hydroxymethyl)-9-(4-(3,4,5-trifluorophenyl)-1H-1,2,3-triazol-1-yl)-1,6-dioxaspiro[4.5]decan-4-yl)-[1.1′-biphenyl]-3-carboxamide], the inhibition at 20 µM lay within 50 to 75%.

With `O=C(c1ccc2ccccc2c1)N1CCC[C@]2(C1)O[C@H](CO)[C@H](O)[C@H](n1cc(-c3cc(F)c(F)c(F)c3)nn1)[C@H]2O` [Compound A186, ((2R,3R,4S,5R,6R)-3,5-dihydroxy-2-(hydroxymethyl)-4-(4-(3,4,5-trifluorophenyl)-1H-1,2,3-triazol-1-yl)-1-oxa-8-azaspiro[5.5]undecan-8-yl)(naphthalen-2-yl)methanone], the inhibition at 20 µM is less than 25%.

As for `O=C(N[C@@H]1CCO[C@]12O[C@H](CO)[C@H](O)[C@H](n1cc(-c3cc(F)c(F)c(F)c3)nn1)[C@H]2O)c1c[nH]c2cccc(Br)c12` [Compound A253, 4-bromo-N-((4R,5S,7R,8R,9S,10R)-8,10-dihydroxy-7-(hydroxymethyl)-9-(4-(3,4,5-trifluorophenyl)-1H-1,2,3-triazol-1-yl)-1,6-dioxaspiro[4.5]decan-4-yl)-1H-indole-3-carboxamide], the inhibition at 20 µM is more than 75%.

The same assay, now with this note: Table 3, found values; compound at 20 μM; 60 nM his-galectin-3, 15 nM biotin-ASF; read-out: % Inhibitory activity (at 20 μM).
Consider `OC[C@H]1O[C@]2(CCCO2)[C@H](O)[C@@H](n2cc(-c3cc(F)c(F)c(F)c3)nn2)[C@H]1O` [Compound A100, (5R,7R,8R,9S,10R)-7-(hydroxymethyl)-9-(4-(3,4,5-trifluorophenyl)-1H-1,2,3-triazol-1-yl)-1,6-dioxaspiro[4.5]decane-8,10-diol], for which the inhibition at 20 µM turned out to be 48.1%.

Still in this assay, the particulars now being: read-out: % Inhibitory activity (at 20 μM), Table 1; compound at 20 μM; 60 nM his-galectin-3, 15 nM biotin-ASF.
Take `OC[C@H]1O[C@@]2(CCCO2)C(O)[C@@H](n2cc(-c3cc(F)c(F)c(F)c3)nn2)[C@H]1O` (stereo in doubt) [Compound A41, (5S,7R,8R,9S,10R)-7-(hydroxymethyl)-9-(4-(3,4,5-trifluorophenyl)-1H-1,2,3-triazol-1-yl)-1,6-dioxaspiro[4.5]decane-8,10-diol]: the inhibition at 20 µM is less than 25%.

On to `C[C@@H](O[C@@H]1[C@@H](n2cc(-c3cc(F)c(F)c(F)c3)nn2)[C@@H](O)[C@@H](CO)O[C@@]12CCCO2)C(=O)O` [Compound A82, (R)-2-(((5S,7R,8R,9S,10R)-8-hydroxy-7-(hydroxymethyl)-9-(4-(3,4,5-trifluorophenyl)-1H-1,2,3-triazol-1-yl)-1,6-dioxaspiro[4.5]decan-10-yl)oxy)propanoic acid], for which the inhibition at 20 µM is less than 25%.

The same assay, now with this note: read-out: % Inhibitory activity (at 20 μM), Table 2; compound at 20 μM; 60 nM his-galectin-3, 15 nM biotin-ASF.
On to `O=C(Cc1ccccc1)N1CCC[C@]2(C1)O[C@H](CO)[C@H](O)[C@H](n1cc(-c3cc(F)c(F)c(F)c3)nn1)[C@H]2O` [Compound A184, 1-((2R,3R,4S,5R,6R)-3,5-dihydroxy-2-(hydroxymethyl)-4-(4-(3,4,5-trifluorophenyl)-1H-1,2,3-triazol-1-yl)-1-oxa-8-azaspiro[5.5]undecan-8-yl)-2-phenylethanone], for which the inhibition at 20 µM was less than 25%.

As for `OC[C@H]1O[C@]2(OCC[C@H]2n2cc(-c3cccc(Cl)c3)nn2)[C@H](O)[C@@H](n2cc(-c3cc(F)c(F)c(F)c3)nn2)[C@H]1O` [Compound A205, (4R,5S,7R,8R,9S,10R)-4-(4-(3-chlorophenyl)-1H-1,2,3-triazol-1-yl)-7-(hydroxymethyl)-9-(4-(3,4,5-trifluorophenyl)-1H-1,2,3-triazol-1-yl)-1,6-dioxaspiro[4.5]decane-8,10-diol], the inhibition at 20 µM was less than 25%.

Take `OC[C@H]1O[C@]2(OCC[C@H]2n2cc(-c3ccccc3)nn2)[C@H](O)[C@@H](n2cc(-c3cc(F)c(F)c(F)c3)nn2)[C@H]1O` [Compound A154, (4R,5S,7R,8R,9S,10R)-7-(hydroxymethyl)-4-(4-phenyl-1H-1,2,3-triazol-1-yl)-9-(4-(3,4,5-trifluorophenyl)-1H-1,2,3-triazol-1-yl)-1,6-dioxaspiro[4.5]decane-8,10-diol]: the inhibition at 20 µM was 25 to 50%.
